Where two headings read alike, the source gives them in different places. Marks after values point to notes of the source that are not given here.
What was measured:
[1] = for Solubility: 23° C., 2 days stirring, theoretical concentration based on sample weight, all dissolved
Description: Table 1. It will be understood that concentrations of adrenergic agonists other than 0.5% may be used, so long as they have therapeutic activity. Likewise, the temperature may be varied, for example, solubility curves may be performed at 37° C. (98.6° F.). The formulation vehicle was prepared by first dissolving polyvinyl alcohol (PVA) in water. The PVA was added to approximately ⅓ of the required total amount of purified water with constant stirring. The slurry was stirred for 20-30 minutes and then heated to 80-95° C. with constant stirring. The mixture was removed from the heat source within 1 hour after having reached the temperature of 80-90° C. and stirred for an additional 10 minutes to ensure homogeneity (Part I). The other ingredients of the Ophthalmic Solution, except for Brimonidine tartrate, were dissolved in a separate container with an additional ⅓ of the required total amount of purified water (Part II). The PVA mixture (Part I) was then quantitatively transferred to Part II using several rinse volumes of purified water. The solution was adjusted to final volume with purified water without pH adjustment.
Brimonidine tartrate was weighed and transferred to a 10 mL test tube containing 5 mL of the formulation vehicle described above. The pH of each sample was then adjusted to a desired value using dilute sodium hydroxide and/or dilute hydrochloric acid. The samples were placed in a rack on a stir plate and stirred at high speed to achieve uniform mixing for 2 days; a partition was placed between the rack and the stir plate to prevent any heat diffusion from the stir plate to the samples.
At the end of two days of stirring, the pH value of each sample was measured, and then approximately 1 mL of each sample was placed in a micro centrifuge tube (polypropylene) and centrifuged at 4,000 rpm for 10 minutes. The supernatant was filtered through a 1 μm filter unit (Whatman, 13 mm, PTFE). The first 3-4 drops of the filtrate were discarded; the rest of the filtrate was received and diluted quantitatively with HPLC mobile phase. […] A control of […] Brimonidine tartrate was prepared in the formulation vehicle at pH 6.3-6.5 and assayed before (untreated) and after (treated) centrifugation and filtration. This was done to evaluate the potential loss of Brimonidine tartrate in these two steps of the sample preparation. To ensure reproducibility, the study was repeated on consecutive days.

[2] = for Solubility of Brimonidine tartrate (%): 15 days; for soluble Brimonidine tartrate: FIG. 1
Description: The pH-solubility profiles of Brimonidine tartrate in compositions (solutions) containing SECs and oxy-chloro components were determined. Particularly, the effects of sodium carboxymethylcellulose (CMC), an SEC, on the solubility of Brimonidine tartrate at various pH conditions were determined. The various concentrations of CMC tested with Brimonidine tartrate were 0%, 0.056%, 0.17%, 0.5%, 1.5% (w/v), Table III.
The samples tested also contained isotonic components, buffer components, and stabilized chlorine dioxide (Purite™), Table III. Sodium carboxymethyl-cellulose, sodium chloride, potassium chloride, calcium chloride dihydrate, and magnesium chloride hexahydrate were USP grade. Boric acid and sodium borate decahydrate were NF grade.
Each sample (1 through 5) was subjected to a range of pH's from about 7 to about 10. The vials containing the sample solutions were placed on a laboratory rotator and left for equilibration for fifteen days at room temperature (^˜21° C.). The sample solutions were filtered using a 25 mm diameter polysulfone cellulose acetate syringe type filter with 0.45 μm pore size. The filtered solutions were assayed for Brimonidine.
Conventional HPLC and detection techniques were used to detect and determine the concentrations of soluble Brimonidine tartrate. […] The solubility is plotted against pH for each CMC concentration. The experimental data points were fitted to a modified Henderson-Hasselbalch equation using a nonlinear least squares routine (Deltagraph version 4.0 DeltaPoint, Inc.), FIG. 1.

## 5-bromo-6-(2-imidozolin-2-ylamino) quinoxaline [Brimonidine tartrate]
[1]; Control (treated), formulation vehicle at pH 6.3-6.5, Study 1
  Concentration of Brimonidine tartrate in control after centrifugation and filtration step: 0.484^d % w/v
[1]; Control (untreated), formulation vehicle at pH 6.3-6.5, Study 1
  Concentration of Brimonidine tartrate in control before centrifugation and filtration step: 0.486^c % w/v
[1]; Study 1, sample 1, pH 5.55, Ophthalmic Solution vehicle
  Solubility: ≦164.4^b % w/v
[1]; Study 2, sample 1, pH 5.50, Ophthalmic Solution vehicle
  Solubility: ≦200.6^b % w/v
[2]; 0% CMC, pH 6.68, room temperature (~21° C.)
  Solubility of Brimonidine tartrate (%): 1.4256%
[2]; 0% CMC, pH 7.11, room temperature (~21° C.)
  Solubility of Brimonidine tartrate (%): 0.2064%
[2]; 0% CMC, pH 7.68, room temperature (~21° C.)
  Solubility of Brimonidine tartrate (%): 0.0786%
[2]; 0% CMC, pH 8.50, room temperature (~21° C.)
  Solubility of Brimonidine tartrate (%): 0.0286%
[2]; 0% CMC, pH 10.09, room temperature (~21° C.)
  Solubility of Brimonidine tartrate (%): 0.0218%
[2]; 0.056% CMC, pH 6.67, room temperature (~21° C.)
  Solubility of Brimonidine tartrate (%): 0.9302%
[2]; 0.056% CMC, pH 7.11, room temperature (~21° C.)
  Solubility of Brimonidine tartrate (%): 0.2828%
[2]; 0.056% CMC, pH 7.77, room temperature (~21° C.)
  Solubility of Brimonidine tartrate (%): 0.0721%
[2]; 0.056% CMC, pH 9.93, room temperature (~21° C.)
  Solubility of Brimonidine tartrate (%): 0.0234%
[2]; 0.17% CMC, pH 6.68, room temperature (~21° C.)
  Solubility of Brimonidine tartrate (%): 1.4200%
[2]; 0.17% CMC, pH 6.93, room temperature (~21° C.)
  Solubility of Brimonidine tartrate (%): 0.7302%
[2]; 0.17% CMC, pH 7.81, room temperature (~21° C.)
  Solubility of Brimonidine tartrate (%): 0.0735%
[2]; 0.17% CMC, pH 8.55, room temperature (~21° C.)
  Solubility of Brimonidine tartrate (%): 0.0328%
[2]; 0.17% CMC, pH 10.05, room temperature (~21° C.)
  Solubility of Brimonidine tartrate (%): 0.0241%
[2]; 0.5% CMC, pH 6.67, room temperature (~21° C.)
  Solubility of Brimonidine tartrate (%): 1.4464%
[2]; 0.5% CMC, pH 7.10, room temperature (~21° C.)
  Solubility of Brimonidine tartrate (%): 0.3693%
[2]; 0.5% CMC, pH 7.56, room temperature (~21° C.)
  Solubility of Brimonidine tartrate (%): 0.1451%
[2]; 0.5% CMC, pH 8.46, room temperature (~21° C.)
  Solubility of Brimonidine tartrate (%): 0.0313%
[2]; 0.5% CMC, pH 9.94, room temperature (~21° C.)
  Solubility of Brimonidine tartrate (%): 0.0250%
[2]; 1.5% CMC, pH 7.35, room temperature (~21° C.)
  Solubility of Brimonidine tartrate (%): 0.1904%
[2]; 1.5% CMC, pH 8.10, room temperature (~21° C.)
  Solubility of Brimonidine tartrate (%): 0.0498%
[2]; 1.5% CMC, pH 8.67, room temperature (~21° C.)
  Solubility of Brimonidine tartrate (%): 0.0311%
[2]; 1.5% CMC, pH 10.11, room temperature (~21° C.)
  Solubility of Brimonidine tartrate (%): 0.0222%
[2]; FIG. 1, 0-1.5% CMC
  effect of CMC concentration on solubility: tends to increase with increasing CMC concentrations
[2]; pH 7.5, 0% CMC
  soluble Brimonidine tartrate: 1000 ppm
[2]; pH 7.5, 0.056% CMC
  soluble Brimonidine tartrate: 1300 ppm
[2]; pH 7.5, 0.17% CMC
  soluble Brimonidine tartrate: 1300 ppm
[2]; pH 7.5, 0.5% CMC
  soluble Brimonidine tartrate: 1600 ppm
[2]; pH 7.5, 1.5% CMC
  soluble Brimonidine tartrate: about 1400 ppm
